The text below walks through data of patent US20220008355A1, “USE OF CAN[…] THE TREATMENT OF EPILEPSY” (GW Research Limited, priority 2018, published 2022).

Molecules are shown by their SMILES.

The subject of series [1] is epilepsy associated with GRIN2A mutation. Nature of the series: Expanded access compassionate use case study of a child with GRIN2A mutation refractory epilepsy. The series is classed as in vivo, human. How it is done:
Example 1 describes a case study of a child with a GRIN2A mutation that was provided highly purified cannabidiol as part of an expanded access treatment program of children with refractory epilepsy.
A child was enrolled in an expanded access compassionate use program for CBD. This subject was treated with a highly purified extract of cannabidiol (CBD) obtained from a cannabis plant. Frequency of seizures was recorded at each visit, as were reported quality of life changes, including mood, behaviour, and cognitive function.
The patient first presented with seizures. They experienced status epilepticus with myoclonic jerks and atypical absence seizures which lasted between 30 seconds to 15 minutes.
The patient had tried and failed 10 different anti-epileptic drugs, the ketogenic diet, vitamin B6 and vagus nerve stimulation however their seizures remained refractory.
Treatment with a highly purified CBD extract (greater than 98% CBD w/w) in sesame oil, of known and constant composition, at a dose of 5 mg/kg/day in addition to their baseline anti-epileptic drug (AED) regimen was commenced in September 2014 and has been ongoing for four years.
Laboratory testing for hematologic, liver, kidney function and concomitant AED levels was performed at baseline, and after every 4 weeks of CBD therapy.

Series [2] in a line: Solubility of the drug substance in water. The series is classed as physicochemical. The source says: The drug substance, CBD is insoluble in water. Sesame oil was selected as an excipient to solubilize the drug substance.
Series [3] relates to seizures after administration of pro-convulsant drugs or an electric current. The settings on record: mice; cited from earlier work.
Series [4] has as its system secondary generalized epilepsy. The settings on record: of eight adult patients; cited from earlier work.
The test system of series [5] is seizures. Conditions: of four adult patients; 200 mg/day; cited from earlier work.
Series [6] deals with seizures. The settings on record: twelve institutionalized adult patients; 200 mg/day; cited from earlier work.
The subject of the next series is Dravet syndrome. The settings on record: Phase 3, Dravet syndrome; cited from earlier work.
The test system of series [7] is seizures. The settings on record: rabbit, in vivo; cited from earlier work.

Turning to `C=C(C)[C@@H]1CCC(C)=C[C@H]1c1c(O)cc(CCCCC)cc1O` [CBD, Cannabidiol], in series [1] (after CBD treatment), the “Concomitant anti-epileptic drugs after treatment” value was “All AEDs have been stopped with the exception of clobazam and the VNS”. The Cognitive function entry in series [1] (after CBD treatment, patient now attends regular school and sports activities) is reported as “significantly improved”. The “Seizure status since the start of treatment” value in series [1] (one patient, CBD 5 up to 25 mg/kg/day added to baseline AEDs, four years of treatment) was “seizure free”. The “EEG: posterior dominate rhythm, alpha activity” value in series [1] (repeat EEG after treatment with CBD (FIG. 2)) is on record as 9 Hz. In addition, the “EEG: epileptiform discharges” value in series [1] (repeat EEG after treatment with CBD (FIG. 2), left frontal head region) was “rare”. In series [1] (repeat EEG after treatment with CBD (FIG. 2), present at baseline), the “EEG: electrical status epilepticus during sleep” value was “no electrical status epilepticus during sleep”. Also, in series [2], the Solubility in water result is “insoluble”. Further, in series [3], the Prevention of seizures entry is reported as “able to prevent seizures”. In addition, in series [4], the “Number of patients with marked reduction of seizures” value is on record as 4. The “Number of patients who became seizure free” value in the series with seizures [5] was “two”. In the series on seizures [6], the Control of seizures entry is reported as “ineffective”. The Study outcome in the series on Dravet syndrome was “positive results”.

For `CCCCCc1cc(O)c2c(c1)OC(C)(C)[C@@H]1CCC(C)=C[C@@H]21` [THC, Tetrahydrocannabinol], in the series with seizures [7], the Convulsant liability result was “pro-convulsant”.
